Experimental data reported in PubChem BioAssay AID248 (DTP/NCI, 2004).
Where “and” joins values, the source holds several entries; their conditions need not be identical. Equal values may be shown once. Toxic doses and inconclusive results are not listed.

Tested on: L1210 leukemia ip in BDF1 mice, survival T/C
Assay: NCI In Vivo Anticancer Drug Screen. Data for tumor model L1210 Leukemia (intraperitoneal) in B6D2F1 (BDF1) mice
Conditions: endpoint: mean survival time, higher = longer survival
Procedure, shortened: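 Tumor was transplanted into mice, which were then dosed with test compound or vehicle alone. Survival was recorded for each group, and the treated figure was expressed relative to the control figure.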

[1] = dose: 100.0 mg/kg/injection, schedule: Q04DX003 (ip), vehicle: saline with Tween-80
[2] = dose: 200.0 mg/kg/injection, schedule: Q04DX003 (ip), vehicle: saline with Tween-80
[3] = dose: 400.0 mg/kg/injection, schedule: Q04DX003 (ip), vehicle: saline with Tween-80
[4] = dose: 100.0 mg/kg/injection, schedule: Q01DX001 (ip), vehicle: saline
[5] = dose: 200.0 mg/kg/injection, schedule: Q01DX001 (ip), vehicle: saline
[6] = dose: 200.0 mg/kg/injection, schedule: Q01DX009 (ip), vehicle: saline
[7] = dose: 100.0 mg/kg/injection, schedule: Q04DX003 (ip), vehicle: saline
[8] = dose: 200.0 mg/kg/injection, schedule: Q04DX003 (ip), vehicle: saline
[9] = dose: 400.0 mg/kg/injection, schedule: Q04DX003 (ip), vehicle: saline
[10] = dose: 100.0 mg/kg/injection, schedule: Q01DX009 (ip), vehicle: Klucel (hydroxypropylcellulose) (HPC)
[11] = dose: 100.0 mg/kg/injection, schedule: Q04DX003 (ip), vehicle: Klucel (hydroxypropylcellulose) (HPC)
[12] = dose: 200.0 mg/kg/injection, schedule: Q01DX009 (ip), vehicle: Klucel (hydroxypropylcellulose) (HPC)
[13] = dose: 200.0 mg/kg/injection, schedule: Q04DX003 (ip), vehicle: Klucel (hydroxypropylcellulose) (HPC)
[14] = dose: 400.0 mg/kg/injection, schedule: Q01DX009 (ip), vehicle: Klucel (hydroxypropylcellulose) (HPC)
[15] = dose: 400.0 mg/kg/injection, schedule: Q04DX003 (ip), vehicle: Klucel (hydroxypropylcellulose) (HPC)
[16] = dose: 100.0 mg/kg/injection, schedule: Q01DX001 (ip), vehicle: carboxymethylcellulose (CMC)
[17] = dose: 200.0 mg/kg/injection, schedule: Q01DX001 (ip), vehicle: carboxymethylcellulose (CMC)
[18] = dose: 400.0 mg/kg/injection, schedule: Q01DX001 (ip), vehicle: carboxymethylcellulose (CMC)
[19] = dose: 100.0 mg/kg/injection, schedule: Q01DX009 (ip), vehicle: saline with Tween-80
[20] = dose: 200.0 mg/kg/injection, schedule: Q01DX009 (ip), vehicle: saline with Tween-80
[21] = dose: 25.0 mg/kg/injection, schedule: Q01DX009 (ip), vehicle: Klucel (hydroxypropylcellulose) (HPC)
[22] = dose: 25.0 mg/kg/injection, schedule: Q04DX003 (ip), vehicle: Klucel (hydroxypropylcellulose) (HPC)
[23] = dose: 50.0 mg/kg/injection, schedule: Q04DX003 (ip), vehicle: Klucel (hydroxypropylcellulose) (HPC)
[24] = dose: 50.0 mg/kg/injection, schedule: Q01DX009 (ip), vehicle: saline with Tween-80
[25] = dose: 100.0 mg/kg/injection, schedule: Q01DX001 (ip), vehicle: saline with Tween-80
[26] = dose: 200.0 mg/kg/injection, schedule: Q01DX001 (ip), vehicle: saline with Tween-80
[27] = dose: 400.0 mg/kg/injection, schedule: Q01DX001 (ip), vehicle: saline with Tween-80
[28] = dose: 100.0 mg/kg/injection, schedule: Q01DX009 (ip), vehicle: saline

Structure (SMILES): CCOC(=O)Nc1cc2n[nH]nc2c(NC(c2ccccc2)c2ccccc2)n1
- T/C [1]: 94 % of control
- T/C [2]: 87 % of control
- T/C [3]: 92 % of control

Structure (SMILES): O=C(OCC1OC(n2cnc3c(=S)nc[nH]c32)C(OC(=O)c2ccc([N+](=O)[O-])cc2)C1OC(=O)c1ccc([N+](=O)[O-])cc1)c1ccc([N+](=O)[O-])cc1 (stereo not drawn)
- T/C (dose: 16.5 mg/kg/injection, schedule: Q01DX009 (ip), vehicle: saline with Tween-80): 95 % of control
- T/C (dose: 33.0 mg/kg/injection, schedule: Q01DX009 (ip), vehicle: saline with Tween-80): 117 % of control
- T/C [4]: 121 % of control
- T/C (dose: 100.0 mg/kg/injection, schedule: Q01DX Z (ip), vehicle: other): 112 % of control
- T/C (dose: 132.0 mg/kg/injection, schedule: Q01DX001 (ip), vehicle: saline): 111 % of control and 118 % of control
- T/C [5]: 106 % of control and 120 % of control
- T/C [6]: 152 % of control
- T/C (dose: 300.0 mg/kg/injection, schedule: Q01DX001 (ip), vehicle: saline): 117 % of control
- T/C (dose: 800.0 mg/kg/injection, schedule: Q01DX Z (ip), vehicle: other): 93 % of control

Structure (SMILES): C[N+](C)(C)/N=C/C1=C(Cl)CCCC1
- T/C (dose: 3.13 mg/kg/injection, schedule: Q04DX002 (ip), vehicle: Klucel (hydroxypropylcellulose) (HPC)): 94 % of control
- T/C (dose: 6.25 mg/kg/injection, schedule: Q04DX002 (ip), vehicle: Klucel (hydroxypropylcellulose) (HPC)): 102 % of control
- T/C (dose: 12.5 mg/kg/injection, schedule: Q04DX002 (ip), vehicle: Klucel (hydroxypropylcellulose) (HPC)): 97 % of control
- T/C (dose: 75.0 mg/kg/injection, schedule: Q01DX001 (ip), vehicle: carboxymethylcellulose (CMC)): 114 % of control

Structure (SMILES): O=C1/C(=C\c2ccccc2)Cc2cc3c(cc21)OCO3
- T/C [7]: 105 % of control
- T/C [8]: 113 % of control
- T/C [9]: 102 % of control

Structure (SMILES): c1ccc2cc(-c3csc4ccccc34)ccc2c1
- T/C [10]: 104 % of control
- T/C [11]: 110 % of control
- T/C [12]: 94 % of control
- T/C [13]: 97 % of control
- T/C [14]: 103 % of control
- T/C [15]: 100 % of control

Structure (SMILES): CC(=O)OCCC/C(=C\c1ccc2ccccc2c1)[N+](=O)[O-]
- T/C [16]: 98 % of control
- T/C [17]: 93 % of control
- T/C [18]: 89 % of control

Structure (SMILES): CC1CN=C(c2ccc(Br)cc2)O1 (stereo not drawn)
- T/C [19]: 105 % of control
- T/C [20]: 89 % of control

Structure (SMILES): COc1cc2[nH]c(C)c(CCN3CCN(c4ccccc4)CC3)c2cc1OC
- T/C (dose: 3.12 mg/kg/injection, schedule: Q01DX009 (ip), vehicle: Klucel (hydroxypropylcellulose) (HPC)): 104 % of control
- T/C (dose: 6.25 mg/kg/injection, schedule: Q01DX009 (ip), vehicle: Klucel (hydroxypropylcellulose) (HPC)): 108 % of control
- T/C (dose: 12.5 mg/kg/injection, schedule: Q01DX009 (ip), vehicle: Klucel (hydroxypropylcellulose) (HPC)): 96 % of control
- T/C [21]: 105 % of control
- T/C [22]: 106 % of control
- T/C [23]: 106 % of control

Structure (SMILES): C1=CC2(C=C1)OC21CCC2(C=CC3(C2)OC3C2CCCCC2)CC1 (stereo not drawn)
- T/C [24]: 94 % of control
- T/C [19]: 94 % of control

Structure (SMILES): COC(=O)c1cc(=O)n(C)c2ccc(OC)cc12
- T/C [25]: 101 % of control
- T/C [26]: 103 % of control
- T/C [27]: 109 % of control

Structure (SMILES): CCOC(=O)C(Br)C(Br)c1ccccc1 (stereo not drawn)
- T/C [7]: 103 % of control
- T/C [8]: 108 % of control
- T/C [9]: 98 % of control

Structure (SMILES): NC(=O)C(N)=O
- T/C [28]: 93 % of control
- T/C [7]: 106 % of control
- T/C [6]: 103 % of control
- T/C [8]: 101 % of control
- T/C (dose: 400.0 mg/kg/injection, schedule: Q01DX009 (ip), vehicle: saline): 101 % of control
- T/C [9]: 97 % of control

Structure (SMILES): O=C(C1CC=CCC1)N1CCCCCC1 (stereo not drawn)
- T/C (dose: 100.0 mg/kg/injection, schedule: Q04DX002 (ip), vehicle: saline): 101 % of control
- T/C (dose: 200.0 mg/kg/injection, schedule: Q04DX002 (ip), vehicle: saline): 111 % of control
- T/C (dose: 400.0 mg/kg/injection, schedule: Q04DX002 (ip), vehicle: saline): 99 % of control

Structure (SMILES): C=CCOC(=O)Nc1ccc(S(=O)(=O)N(C)C)cc1
- T/C [16]: 97 % of control
- T/C [17]: 93 % of control
- T/C [18]: 97 % of control

Structure (SMILES): CCN(CCCl)CCCNCc1c2ccccc2c(C)c2ccccc12
- T/C (dose: 5.0 mg/kg/injection, schedule: Q01DX005 (ip), vehicle: saline): 116 % of control

Structure (SMILES): CN(C)c1ccc(C=Nc2ccc3c(c2)Cc2ccccc2-3)cc1
- T/C [10]: 97 % of control
- T/C [11]: 94 % of control
- T/C [12]: 95 % of control
- T/C [13]: 107 % of control
- T/C [14]: 90 % of control
- T/C [15]: 97 % of control

Structure (SMILES): CCCCCCCCCCCCCCCCS(=O)(=O)c1ccccc1NC(N)=O
- T/C [11]: 97 % of control
- T/C [13]: 98 % of control
- T/C [15]: 95 % of control

Structure (SMILES): c1coc(-c2ncnc3c2Cc2ccccc2-3)c1
- T/C [21]: 96 % of control
- T/C [22]: 98 % of control
- T/C (dose: 50.0 mg/kg/injection, schedule: Q01DX009 (ip), vehicle: Klucel (hydroxypropylcellulose) (HPC)): 91 % of control
- T/C [23]: 91 % of control
- T/C [10]: 102 % of control
- T/C [11]: 100 % of control

Structure (SMILES): S=c1[nH]nc2n1NC(c1ccoc1)=NN2
- T/C (dose: 25.0 mg/kg/injection, schedule: Q01DX009 (ip), vehicle: saline with Tween-80): 96 % of control
- T/C [24]: 95 % of control
- T/C [19]: 97 % of control

Structure (SMILES): N=C(N)SCc1c2ccccc2cc2ccccc12
- T/C (dose: 88.0 mg/kg/injection, schedule: Q01DX009 (ip), vehicle: saline sonified): 102 % of control
- T/C [28]: 102 % of control
- T/C [7]: 104 % of control
- T/C (dose: 132.0 mg/kg/injection, schedule: Q01DX009 (ip), vehicle: saline sonified): 105 % of control
- T/C (dose: 200.0 mg/kg/injection, schedule: Q01DX009 (ip), vehicle: saline sonified): 114 % of control
- T/C [8]: 102 % of control
- T/C [9]: 112 % of control

Structure (SMILES): [Cl][Hg][S]C1CCCC1
- T/C (dose: 5.0 mg/kg/injection, schedule: Q01DX001 (ip), vehicle: saline): 106 % of control
- T/C (dose: 10.0 mg/kg/injection, schedule: Q01DX001 (ip), vehicle: saline): 101 % of control
- T/C (dose: 20.0 mg/kg/injection, schedule: Q01DX001 (ip), vehicle: saline): 101 % of control

Structure (SMILES): COc1cccc(C(O)c2cnc(C)n2Cc2ccccc2)c1 (stereo not drawn)
- T/C [25]: 94 % of control
- T/C [19]: 93 % of control and 107 % of control
- T/C (dose: 100.0 mg/kg/injection, schedule: Q04DX002 (ip), vehicle: saline with Tween-80): 97 % of control and 100 % of control
- T/C [1]: 101 % of control
- T/C [26]: 100 % of control
- T/C [20]: 98 % of control and 99 % of control
- T/C (dose: 200.0 mg/kg/injection, schedule: Q04DX002 (ip), vehicle: saline with Tween-80): 102 % of control and 107 % of control
- T/C [2]: 93 % of control
- T/C [27]: 103 % of control
- T/C (dose: 400.0 mg/kg/injection, schedule: Q01DX009 (ip), vehicle: saline with Tween-80): 98 % of control and 108 % of control
- T/C (dose: 400.0 mg/kg/injection, schedule: Q04DX002 (ip), vehicle: saline with Tween-80): 105 % of control and 88 % of control
- T/C [3]: 98 % of control

Structure (SMILES): Cn1c2c(c(=O)n(C)c1=O)CCC(=O)N2
- T/C (dose: 100.0 mg/kg/injection, schedule: Q04DX002 (ip), vehicle: Klucel (hydroxypropylcellulose) (HPC)): 106 % of control
- T/C (dose: 200.0 mg/kg/injection, schedule: Q04DX002 (ip), vehicle: Klucel (hydroxypropylcellulose) (HPC)): 98 % of control
- T/C (dose: 400.0 mg/kg/injection, schedule: Q04DX002 (ip), vehicle: Klucel (hydroxypropylcellulose) (HPC)): 92 % of control

Structure (SMILES): Cn1c(=O)c2c(nc(OCC3CC4CCC3C4)n2C)n(C)c1=O (stereo not drawn)
- T/C [4]: 96 % of control
- T/C [5]: 108 % of control
- T/C (dose: 400.0 mg/kg/injection, schedule: Q01DX001 (ip), vehicle: saline): 108 % of control
